Experimental data: US20250332131A1, “COMPOSITION FOR ACTIVATING NICOTINAMIDE PHOSPHORIBOSYLTRANSFERASE” (Yuki Gosei Kogyo Co., Ltd., priority 2024, published 2025)

Test system: miRNA contained in exosomes secreted from C2C12 cells
Details: ratio of 1.5 or more compared to the control and signal value exceeding 100; Table 1, FIG. 5
Description: In this example, miRNA in exosomes was analyzed by microarray.
The exosome solution purified in Example 2 was used for microarray analysis. The microarray experiment was outsourced to Kamakura Techno Science (Kanagawa, Japan). Based on the data obtained, samples with a ratio of 1.5 or more compared to the control and with either of the two samples with a signal value exceeding 100 were extracted as miRNAs with altered transcription levels.

NCCC(=O)O [β-alanine, 3-aminopropanoic acid]
miRNA increased in exosomes of C2C12 cells: six RNAs were increased
